# Experimental data: patent US8785460B2, “Tricyclic compounds and use thereof” (Takeda Pharmaceutical Company Limited, priority 2008, dated 2014)
row,SMILES,melting point
1,"OC1CN(Cc2cccc3nc4n(c23)CCCN4c2ccc(Cl)cc2Cl)C1 [Example 91, 1-{[1-(2,4-Dichlorophenyl)-1,2,3,4-tetrahydropyrimido[1,2-a]benzimidazol-6-yl]methyl}azetidin-3-ol]",240 to 241 °C
2,"CCC(O)c1cccc2nc3n(c12)CCCN3c1ccc(Cl)cc1Cl (centres unmarked) [Example 92, 1-[1-(2,4-Dichlorophenyl)-1,2,3,4-tetrahydropyrimido[1,2-a]benzimidazol-6-yl]propan-1-ol]",186 to 188 °C
3,"OC(c1cccc2nc3n(c12)CCCN3c1ccc(Cl)cc1Cl)C1CC1 (centres unmarked) [Example 95, Cyclopropyl[1-(2,4-dichlorophenyl)-1,2,3,4-tetrahydropyrimido[1,2-a]benzimidazol-6-yl]methanol]",208 to 209 °C
4,"CCC(O)c1ccc(Cl)c2nc3n(c12)CCCN3c1ccc(Cl)cc1Cl (centres unmarked) [Example 112, 1-[9-Chloro-1-(2,4-dichlorophenyl)-1,2,3,4-tetrahydropyrimido[1,2-a]benzimidazol-6-yl]propan-1-ol]",244 to 245 °C
5,"COc1nc(C)c(N2CCCn3c2nc2c(Cl)ccc(C(NC(=O)C(F)F)C(F)(F)F)c23)c(C)n1 (centres unmarked) [Example 190, N-{1-[9-Chloro-1-(2-methoxy-4,6-dimethylpyrimidin-5-yl)-1,2,3,4-tetrahydropyrimido[1,2-a]benzimidazol-6-yl]-2,2,2-trifluoroethyl}-2,2-difluoroacetamide]",155 to 156 °C
6,"O=C1CCCN1c1ccc(Cl)c2nc3n(c12)CCCN3c1ccc(Cl)cc1Cl [Example 195, 1-[9-Chloro-1-(2,4-dichlorophenyl)-1,2,3,4-tetrahydropyrimido[1,2-a]benzimidazol-6-yl]pyrrolidin-2-one]",215 to 216 °C
7,"CCC(=O)c1cccc2nc3n(c12)CCCN3c1ccc(Cl)cc1Cl [Example 198, 1-[1-(2,4-Dichlorophenyl)-1,2,3,4-tetrahydropyrimido[1,2-a]benzimidazol-6-yl]propan-1-one]",195 to 196 °C
8,"O=C(c1cccc2nc3n(c12)CCCN3c1ccc(Cl)cc1Cl)C1CC1 [Example 199, Cyclopropyl[1-(2,4-dichlorophenyl)-1,2,3,4-tetrahydropyrimido[1,2-a]benzimidazol-6-yl]methanone]",189 to 190 °C
9,"CCC(c1cccc2nc3n(c12)CCCN3c1ccc(Cl)cc1Cl)N(C)C (centres unmarked) [Example 203, 1-[1-(2,4-Dichlorophenyl)-1,2,3,4-tetrahydropyrimido[1,2-a]benzimidazol-6-yl]-N,N-dimethylpropan-1-amine]",144 to 145 °C
10,"CCC(C)Nc1cccc2nc3n(c12)CCCN3c1ccc(Cl)cc1Cl (centres unmarked) [Example 207, 1-(2,4-Dichlorophenyl)-N-(1-methylpropyl)-1,2,3,4-tetrahydropyrimido[1,2-a]benzimidazol-6-amine]",180 to 181 °C
11,"Cc1nc(O)nc(C)c1N1CCCn2c1nc1c(Cl)ccc(C(OC(F)F)C(F)(F)F)c12 (centres unmarked) [Example 215, 5-{9-Chloro-6-[1-(difluoromethoxy)-2,2,2-trifluoroethyl]-3,4-dihydropyrimido[1,2-a]benzimidazol-1(2H)-yl}-4,6-dimethylpyrimidin-2-ol]",208 to 210 °C
12,"CCC(CC)c1ccc(Cl)c2nc3n(c12)CCN3c1ccc(Cl)cc1C(N)=O [Example 223, 5-Chloro-2-[8-chloro-5-(1-ethylpropyl)-2,3-dihydro-1H-imidazo[1,2-a]benzimidazol-1-yl]benzamide]",> 300 °C
13,"CCC(CC)c1ccc(Cl)c2nc3n(c12)CCN3C(=O)c1ccc(Cl)nc1 [Example 228, 8-Chloro-1-[(6-chloropyridin-3-yl)carbonyl]-5-(1-ethylpropyl)-2,3-dihydro-1H-imidazo[1,2-a]benzimidazole]",205 to 207 °C
14,"CCC(CC)c1ccc(Cl)c2nc3n(c12)CCN3C(=O)c1c(C)cc(C)cc1C [Example 229, 8-Chloro-5-(1-ethylpropyl)-1-[(2,4,6-trimethylphenyl)carbonyl]-2,3-dihydro-1H-imidazo[1,2-a]benzimidazole]",234 to 236 °C
15,"CCOC(c1ccc(Cl)c2nc3n(c12)CCCN3c1ccc(OC)nc1C)C(F)(F)F (centres unmarked) [Example 281, 9-Chloro-6-(1-ethoxy-2,2,2-trifluoroethyl)-1-(6-methoxy-2-methylpyridin-3-yl)-1,2,3,4-tetrahydropyrimido[1,2-a]benzimidazole]",168 to 170 °C
16,"Cc1nc(N2CCCC2)ccc1N1CCCn2c1nc1c(Cl)ccc(C(OC(F)F)C(F)(F)F)c12 (centres unmarked) [Example 294, 9-Chloro-6-[1-(difluoromethoxy)-2,2,2-trifluoroethyl]-1(2-methyl-6-pyrrolidin-1-ylpyridin-3-yl)-1,2,3,4-tetrahydropyrimido[1,2-a]benzimidazole]",233 to 236 °C

row,SMILES,melting point
1,"Cc1nc(N2CCCCC2)ccc1N1CCCn2c1nc1c(Cl)ccc(C(OC(F)F)C(F)(F)F)c12 (centres unmarked) [Example 295, 9-Chloro-6-[1-(difluoromethoxy)-2,2,2-trifluoroethyl]-1-(2-methyl-6-piperidin-1-ylpyridin-3-yl)-1,2,3,4-tetrahydropyrimido[1,2-a]benzimidazole]",164 to 167 °C
2,"Cc1nc(N2CCOCC2)ccc1N1CCCn2c1nc1c(Cl)ccc(C(OC(F)F)C(F)(F)F)c12 (centres unmarked) [Example 296, 9-Chloro-6-[1-(difluoromethoxy)-2,2,2-trifluoroethyl]-1-(2-methyl-6-morpholin-4-ylpyridin-3-yl)-1,2,3,4-tetrahydropyrimido[1,2-a]benzimidazole]",191 to 193 °C
3,"Cc1nc(N2CCN(C)CC2)ccc1N1CCCn2c1nc1c(Cl)ccc(C(OC(F)F)C(F)(F)F)c12 (centres unmarked) [Example 297, 9-Chloro-6-[1-(difluoromethoxy)-2,2,2-trifluoroethyl]-1-[2-methyl-6-(4-methylpiperazin-1-yl)pyridin-3-yl]-1,2,3,4-tetrahydropyrimido[1,2-a]benzimidazole]",193 to 195 °C
4,"Cc1nc(NC2CC2)ccc1N1CCCn2c1nc1c(Cl)ccc(C(OC(F)F)C(F)(F)F)c12 (centres unmarked) [Example 299, 5-{9-Chloro-6-[1-(difluoromethoxy)-2,2,2-trifluoroethyl]-3,4-dihydropyrimido[1,2-a]benzimidazol-1(2H)-yl}-N-cyclopropyl-6-methylpyridin-2-amine]",168 to 170 °C
5,"OC(c1ccc(Cl)c2nc3n(c12)CCCN3c1ccc(Cl)cc1Cl)(C(F)(F)F)C(F)(F)F [Example 319, 2-[9-Chloro-1-(2,4-dichlorophenyl)-1,2,3,4-tetrahydropyrimido[1,2-a]benzimidazol-6-yl]-1,1,1,3,3,3-hexafluoropropan-2-ol]",237 to 240 °C
6,"CCC(O)c1ccc(Cl)c2nc3n(c12)CCCN3c1c(C)cc(Cl)cc1Cl (centres unmarked) [Example 380, 1-[9-Chloro-1-(2,4-dichloro-6-methylphenyl)-1,2,3,4-tetrahydropyrimido[1,2-a]benzimidazol-6-yl]propan-1-ol]",210 to 211 °C
7,"O=S(=O)(CC(F)(F)F)NC(c1ccc(Cl)c2nc3n(c12)CCCN3c1c(Cl)cc(Cl)cc1Cl)C(F)(F)F (centres unmarked) [Example 417, N-{1-[9-Chloro-1-(2,4,6-trichlorophenyl)-1,2,3,4-tetrahydropyrimido[1,2-a]benzimidazol-6-yl]-2,2,2-trifluoroethyl}-2,2,2-trifluoroethanesulfonamide]",237 to 239 °C
8,"OC(c1ccc(Cl)c2nc3n(c12)CCN3c1ccc(Cl)cc1Cl)(C1CC1)C1CC1 [Example 430, [8-Chloro-1-(2,4-dichlorophenyl)-2,3-dihydro-1H-imidazo[1,2-a]benzimidazol-5-yl](dicyclopropyl)methanol]",238 to 239 °C
9,"CCC(NC(=O)C1CC1)c1ccc(Cl)c2nc3n(c12)CCCN3c1ccc(Cl)cc1Cl (centres unmarked) [Example 441, N-{1-[9-Chloro-1-(2,4-dichlorophenyl)-1,2,3,4-tetrahydropyrimido[1,2-a]benzimidazol-6-yl]propyl}cyclopropanecarboxamide]",251 to 253 °C
10,"CCS(=O)(=O)Cc1ccc(Cl)c2nc3n(c12)CCCN3c1ccc(Cl)cc1Cl [Example 461, 9-Chloro-1-(2,4-dichlorophenyl)-6-[(ethylsulfonyl)methyl]-1,2,3,4-tetrahydropyrimido[1,2-a]benzimidazole]",300 to 302 °C
11,"CCN(CC)c1cccc2nc3n(c12)CCOC3c1ccc(Cl)cc1Cl (centres unmarked) [Example 501, 1-(2,4-Dichlorophenyl)-N,N-diethyl-3,4-dihydro-1H-[1,4]oxazino[4,3-a]benzimidazol-6-amine]",130 to 131 °C
12,"CCN(CC)c1cccc2nc3n(c12)CCCN(C)C3c1ccc(Cl)cc1Cl (centres unmarked) [Example 510, 1-(2,4-Dichlorophenyl)-N,N-diethyl-2-methyl-2,3,4,5-tetrahydro-1H-[1,4]diazepino[1,2-a]benzimidazol-7-amine]",132 to 133 °C
13,"COc1nc(C)c(N2CCCn3c2nc2cccc(C(O)C(F)(F)F)c23)c(C)n1 (centres unmarked) [Example 517, 2,2,2-Trifluoro-1-[1-(2-methoxy-4,6-dimethylpyrimidin-5-yl)-1,2,3,4-tetrahydropyrimido[1,2-a]benzimidazol-6-yl]ethanol]",296 to 299 °C
14,"COc1nc(C)c(N2CCCn3c2nc2c(Br)ccc(C(OC(F)F)C(F)(F)F)c23)c(C)n1 (centres unmarked) [Example 519, 9-Bromo-6-[1-(difluoromethoxy)-2,2,2-trifluoroethyl]-1-(2-methoxy-4,6-dimethylpyrimidin-5-yl)-1,2,3,4-tetrahydropyrimido[1,2-a]benzimidazole]",211 to 213 °C
15,"COc1nc(C)c(N2CCCn3c2nc2c(C#N)ccc(C(OC(F)F)C(F)(F)F)c23)c(C)n1 (centres unmarked) [Example 520, 6-[1-(Difluoromethoxy)-2,2,2-trifluoroethyl]-1-(2-methoxy-4,6-dimethylpyrimidin-5-yl)-1,2,3,4-tetrahydropyrimido[1,2-a]benzimidazole-9-carbonitrile]",250 to 252 °C
16,"COc1nc(C)c(N2CCCn3c2nc2c(OC)ccc(C(OC(F)F)C(F)(F)F)c23)c(C)n1 (centres unmarked) [Example 526, 6-[1-(Difluoromethoxy)-2,2,2-trifluoroethyl]-9-methoxy-1-(2-methoxy-4,6-dimethylpyrimidin-5-yl)-1,2,3,4-tetrahydropyrimido[1,2-a]benzimidazole]",201 to 203 °C
